{
  "source": "patent US20240309016A1",
  "about": "“MACROCYCLIC HETEROCYCLE COMPOUNDS AND USE THEREOF” (TAKEDA PHARMACEUTICAL COMPANY LIMITED, priority 2023, published 2024)",
  "data": [
    {"target": "T1, human OX2 receptor (Homo sapiens, UniProt O43614)", "T1 construct": "expressed in transfected cells", "T1 sequence (O43614 1-444)": "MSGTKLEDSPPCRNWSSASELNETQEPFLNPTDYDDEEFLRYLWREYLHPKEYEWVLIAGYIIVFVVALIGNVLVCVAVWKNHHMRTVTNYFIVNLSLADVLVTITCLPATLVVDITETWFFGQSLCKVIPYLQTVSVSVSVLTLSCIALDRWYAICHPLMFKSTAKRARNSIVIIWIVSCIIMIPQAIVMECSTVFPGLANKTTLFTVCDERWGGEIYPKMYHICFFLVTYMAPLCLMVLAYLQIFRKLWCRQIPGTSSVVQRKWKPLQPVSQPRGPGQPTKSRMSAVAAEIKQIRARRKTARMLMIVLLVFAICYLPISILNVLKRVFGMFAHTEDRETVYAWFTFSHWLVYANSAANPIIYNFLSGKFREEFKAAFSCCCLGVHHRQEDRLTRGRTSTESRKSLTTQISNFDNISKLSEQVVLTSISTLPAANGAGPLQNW", "test": "Measurement of orexin type 2 receptor agonist activity (Experimental Example 2; Fluo-4 AM calcium fluorescence, FDSS μCELL)", "type": "cell-based", "details": "compound at 3 μM; CHO cells expressing human OX2 receptor; DMSO = 0%, 10 nM orexin A (human) = 100%", "method": "In order to obtain cell clones that stably express human orexin type 2 receptor, human orexin type 2 (residues 1-444, NCBI Reference Sequence: AK314279) was constructed in a pcDNA3.1 (+) vector (Invitrogen) to express in mammalian cells. This plasmid DNA was transfected into CHO-K1 cells by electroporation, and stable clones were obtained by limiting dilution using resistance to G418 as a selection marker.\nCHO cells in which human OX2 receptor was forcibly expressed were seeded at 10,000 cells/well into a 384-well black transparent bottom plate (BD falcon), and were incubated at 37° C., 5% CO2 for 1 day after incubation at room temperature for 30 minutes. After removing the cell plate medium, assay buffer containing calcium indicator A (HBSS (Thermo Fisher Scientific), 20 mM HEPES (Thermo Fisher Scientific), 0.1% BSA (Sigma-Aldrich), 2.5 μg/mL Fluo-4 AM (Dojin Kagaku), 0.08% Pluronic F127 (Dojin Kagaku), 1.25 mM probenecid (Dojin Kagaku)) was added at 30 μL/well. After incubation in a 5% CO2 incubator at 37° C. for 30 minutes, it was incubated at room temperature for another 30 minutes. Add 10 μL/well of the test compound diluted with assay buffer B (HBSS, 20 mM HEPES, 0.1% BSA), and use FDSS μCELL (Hamamatsu Photonics) to measure the fluorescence value every 1 second for 1 minute, and then every 2 seconds for 1 minute. It was measured for 1 minute and 40 seconds. The amount of fluorescence value when DMSO is added instead of the test compound is defined as 0%, and the amount of fluorescence value when orexin A (human) (Peptide Institute) with a final concentration of 10 nM is added is defined as 100%. The activity (%) of the test compound was calculated. Table 2-1, 2-2, 2-3, and 2-4 show the activity of each compound at a concentration of 3 μM.", "units": {"OX2R agonist activity (3 μM, %)": "%"}, "values": [
      {"smiles": "Cc1ccc2nc1Oc1cccc(c1F)C[C@H]1[C@@H](NS(=O)(=O)CF)C(F)(F)CN1C(=O)NC2", "note": "[Example 19, 1-fluoro-N-[(15aS,16R)-17,17,20-trifluoro-7-methyl-1-oxo-2,3,15a,16,17,18-hexahydro-1H,15H-4,8-(azeno)-10,14-(metheno)pyrrolo[1,2-j][1,8,10]oxadiazacyclo-heptadecin-16-yl]methanesulfonamide]", "OX2R agonist activity (3 μM, %)": 109},
      {"smiles": "CCS(=O)(=O)N[C@H]1CCN2C(=O)NCc3nc(c(F)cc3F)Oc3cccc(c3)C[C@@H]12", "note": "[Example 20, N-[(15aS,16S)-5,7-difluoro-1-oxo-2,3,15a,16,17,18-hexahydro-1H,15H-4,8-(azeno)-14,10-(metheno)pyrrolo[1,2-j][1,8,10]oxadiazacyclo-heptadecin-16-yl]ethanesulfonamide]", "OX2R agonist activity (3 μM, %)": 105},
      {"smiles": "CCS(=O)(=O)N[C@@H]1[C@@H]2Cc3cccc(c3F)Oc3nc(c(F)cc3F)CNC(=O)N2CC1(F)F", "note": "[Example 21, N-[(15aS,16R)-5,7,17,17,20-pentafluoro-1-oxo-2,3,15a,16,17,18-hexahydro-1H,15H-4,8-(azeno)-14,10-(metheno)pyrrolo[1,2-j][1,8,10]oxadiazacyclo-heptadecin-16-yl]ethanesulfonamide]", "OX2R agonist activity (3 μM, %)": 100},
      {"smiles": "Cc1ccc2nc1Oc1cccc(c1F)C[C@H]1[C@@H](NS(=O)(=O)C3CC3)C(F)(F)CN1C(=O)NC2", "note": "[Example 23, N-[(15aS,16R)-17,17,20-trifluoro-7-methyl-1-oxo-2,3,15a,16,17,18-hexahydro-1H,15H-4,8-(azeno)-14,10-(metheno)pyrrolo[1,2-j][1,8,10]oxadiazacyclo-heptadecin-16-yl]cyclopropanesulfonamide]", "OX2R agonist activity (3 μM, %)": 96},
      {"smiles": "CCS(=O)(=O)N[C@H]1[C@@H](F)CN2C(=O)NCc3ccc(Cl)c(n3)Oc3cccc(c3F)C[C@@H]12", "note": "[Example 24, N-[(15aS,16R,17S)-7-chloro-17,20-difluoro-1-oxo-2,3,15a,16,17,18-hexahydro-1H,15H-4,8-(azeno)-14,10-(metheno)pyrrolo[1,2-j][1,8,10]oxadiazacyclo-heptadecin-16-yl]ethanesulfonamide]", "OX2R agonist activity (3 μM, %)": 104},
      {"smiles": "CCS(=O)(=O)N[C@H]1[C@@H](F)CN2C(=O)NCc3ccc(C)c(n3)Oc3cccc(c3F)C[C@@H]12", "note": "[Example 25, N-[(15aS,16R,17S)-17,20-difluoro-7-methyl-1-oxo-2,3,15a,16,17,18-hexahydro-1H,15H-4,8-(azeno)-14,10-(metheno)pyrrolo[1,2-j][1,8,10]oxadiazacyclo-heptadecin-16-yl]ethanesulfonamide]", "OX2R agonist activity (3 μM, %)": 105},
      {"smiles": "CCS(=O)(=O)N[C@@H]1[C@@H]2Cc3cccc(c3F)Oc3nc(ccc3OC)CNC(=O)N2CC1(F)F", "note": "[Example 26, N-[(15aS,16R)-17,17,20-trifluoro-7-methoxy-1-oxo-2,3,15a,16,17,18-hexahydro-1H,15H-4,8-(azeno)-10,14-(metheno)pyrrolo[1,2-j][1,8,10]oxadiazacyclo-heptadecin-16-yl]ethanesulfonamide]", "OX2R agonist activity (3 μM, %)": 102},
      {"smiles": "CCS(=O)(=O)N[C@H]1[C@@H](F)CN2C(=O)NCc3ccc(C(F)F)c(n3)Oc3cccc(c3F)C[C@@H]12", "note": "[Example 27, N-[(15aS,16R,17S)-7-(difluoromethyl)-17,20-difluoro-1-oxo-2,3,15a,16,17,18-hexahydro-1H,15H-8,4-(azeno)-10,14-(metheno)pyrrolo[1,2-j][1,8,10]oxadiazacyclo-heptadecin-16-yl]ethanesulfonamide]", "OX2R agonist activity (3 μM, %)": 102},
      {"smiles": "O=C1NCc2ccc(C(F)F)c(n2)Oc2cccc(c2F)C[C@H]2[C@@H](NS(=O)(=O)C3CC3)[C@@H](F)CN12", "note": "[Example 28, N-[(15aS,16R,17S)-7-(difluoromethyl)-17,20-difluoro-1-oxo-2,3,15a,16,17,18-hexahydro-1H,15H-8,4-(azeno)-10,14-(metheno)pyrrolo[1,2-j][1,8,10]oxadiazacyclo-heptadecin-16-yl]cyclopropanesulfonamide]", "OX2R agonist activity (3 μM, %)": 94},
      {"smiles": "CCS(=O)(=O)N[C@@H]1[C@@H]2Cc3cccc(c3F)Oc3nc(ccc3C(F)F)CNC(=O)N2CC1(F)F", "note": "[Example 29, N-[(15aS,16R)-7-(difluoromethyl)-17,17,20-trifluoro-1-oxo-2,3,15a,16,17,18-hexahydro-1H,15H-4,8-(azeno)-10,14-(metheno)pyrrolo[1,2-j][1,8,10]oxadiazacyclo-heptadecin-16-yl]ethanesulfonamide]", "OX2R agonist activity (3 μM, %)": 100},
      {"smiles": "CS(=O)(=O)N[C@@H]1[C@@H]2Cc3cccc(c3F)Oc3nc(c(F)cc3Cl)CNC(=O)N2CC1(F)F", "note": "[Example 30, N-[(15aS,16R)-7-chloro-5,17,17,20-tetrafluoro-1-oxo-2,3,15a,16,17,18-hexahydro-1H,15H-4,8-(azeno)-14,10-(metheno)pyrrolo[1,2-j][1,8,10]oxadiazacyclo-heptadecin-16-yl]methanesulfonamide]", "OX2R agonist activity (3 μM, %)": 102},
      {"smiles": "CCS(=O)(=O)N[C@H]1[C@@H](F)CN2C(=O)NCc3ccc(F)c(n3)Oc3cccc(c3F)C[C@@H]12", "note": "[Example 31, N-[(15aS,16R,17S)-7,17,20-trifluoro-1-oxo-2,3,15a,16,17,18-hexahydro-1H,15H-4,8-(azeno)-14,10-(metheno)pyrrolo[1,2-j][1,8,10]oxadiazacyclo-heptadecin-16-yl]ethanesulfonamide]", "OX2R agonist activity (3 μM, %)": 102},
      {"smiles": "CCS(=O)(=O)N[C@@H]1[C@@H]2Cc3cccc(c3F)Oc3nc(c(F)cc3C)CNC(=O)N2CC1(F)F", "note": "[Example 32, N-[(15aS,16R)-5,17,17,20-tetrafluoro-7-methyl-1-oxo-2,3,15a,16,17,18-hexahydro-1H,15H-4,8-(azeno)-14,10-(metheno)pyrrolo[1,2-j][1,8,10]oxadiazacyclo-heptadecin-16-yl]ethanesulfonamide]", "OX2R agonist activity (3 μM, %)": 101},
      {"smiles": "CN(C)S(=O)(=O)N[C@H]1[C@@H](F)CN2C(=O)NCc3ccc(Cl)c(n3)Oc3cccc(c3F)C[C@@H]12", "note": "[Example 34, N′-[(15aS,16R,17S)-7-chloro-17,20-difluoro-1-oxo-2,3,15a,16,17,18-hexahydro-1H,15H-4,8-(azeno)-14,10-(metheno)pyrrolo[1,2-j][1,8,10]oxadiazacyclo-heptadecin-16-yl]-N,N-dimethylsulfuric diamide]", "OX2R agonist activity (3 μM, %)": 93},
      {"smiles": "CCS(=O)(=O)N[C@@H]1[C@@H]2Cc3cccc(c3F)Oc3nc(c(F)cc3Cl)CNC(=O)N2CC1(F)F", "note": "[Example 35, N-[(15aS,16R)-7-chloro-5,17,17,20-tetrafluoro-1-oxo-2,3,15a,16,17,18-hexahydro-1H,15H-4,8-(azeno)-10,14-(metheno)pyrrolo[1,2-j][1,8,10]oxadiazacyclo-heptadecin-16-yl]ethanesulfonamide]", "OX2R agonist activity (3 μM, %)": 93},
      {"smiles": "CN(C)S(=O)(=O)N[C@H]1[C@@H](F)CN2C(=O)NCc3ccc(C(F)F)c(n3)Oc3cccc(c3F)C[C@@H]12", "note": "[Example 37, N′-[(15aS,16R,17S)-7-(difluoromethyl)-17,20-difluoro-1-oxo-2,3,15a,16,17,18-hexahydro-1H,15H-8,4-(azeno)-10,14-(metheno)pyrrolo[1,2-j][1,8,10]oxadiazacyclo-heptadecin-16-yl]-N,N-dimethylsulfuric diamide]", "OX2R agonist activity (3 μM, %)": 101},
      {"smiles": "CS(=O)(=O)N[C@H]1[C@@H](F)CN2C(=O)OCc3ccc(C(F)F)c(n3)Oc3cccc(c3F)C[C@@H]12", "note": "[Example 38, N-[(15aS,16R,17S)-7-(difluoromethyl)-17,20-difluoro-1-oxo-15a,16,17,18-tetrahydro-1H,3H,15H-8,4-(azeno)-10,14-(metheno)pyrrolo[1,2-c][1,11,3]dioxazacyclo-heptadecin-16-yl]methanesulfonamide]", "OX2R agonist activity (3 μM, %)": 80},
      {"smiles": "CCS(=O)(=O)N[C@H]1[C@@H](F)CN2C(=O)NCc3ccc(Cl)c(c3)Oc3cccc(c3F)C[C@@H]12", "note": "[Example 39, N-[(15aS,16R,17S)-7-chloro-17,20-difluoro-1-oxo-2,3,15a,16,17,18-hexahydro-1H,15H-4,8:14,10-di(metheno)pyrrolo[1,2-j][1,8,10]oxadiazacyclo-heptadecin-16-yl]ethanesulfonamide]", "OX2R agonist activity (3 μM, %)": 105}
    ]}
  ]
}
